Where a name gives a salt, the structure may show the parent alone.
What follows are compounds tested on Escherichia coli strain ATCC25922 (assay: standard microdilution assay to determine minimum inhibitory concentrations (MICs)). Conditions: Escherichia coli strain ATCC25922, microdilution.
Assay type: cell-based
In short: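 E. coli strain ATCC25922 tested per CLSI microdilution methodology (about 100 microliters per well) to find minimum inhibitory concentrations. Activity scored categorically at a 16 micrograms/ml threshold.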

Row | Structure (SMILES) | E. coli ATCC25922 MIC
1 | CC(CN)CN1CCC(c2cc3cn(-c4ccc(CNCCCNC(=N)N)cc4)c(=O)nc3[nH]2)C1 (centres unmarked) [Compound 2040a] | + (a “+” indicates that the compound has an MIC value of 16 micrograms/ml or less)
2 | CNCCN1CCCC(c2cc3cn(-c4ccc(CNCCCNC(=N)N)cc4)c(=O)nc3[nH]2)C1 (centres unmarked) [Compound 2042a] | + (a “+” indicates that the compound has an MIC value of 16 micrograms/ml or less)
3 | NC(=O)c1ccc(-n2cc3cc(-c4ccc(S(=O)(=O)N(Cc5cc(OC(F)(F)F)ccc5F)C5CCNCC5)cc4)[nH]c3nc2=O)cc1 [Compound 1115] | − (a “−” indicates that the compound has an MIC value greater than 16 micrograms/ml)
4 | N=C(N)NCCNCC(O)Cn1cc2cc(-c3ccc(S(=O)(=O)NC4CCNCC4)cc3)[nH]c2nc1=O (centres unmarked) [Compound 1108] | + (a “+” indicates that the compound has an MIC value of 16 micrograms/ml or less)
5 | N=C(N)NCCCNCc1ccc(-n2cc3cc(-c4ccc(C(NC5CNC5)C(F)(F)F)cc4)[nH]c3nc2=O)cc1 (centres unmarked) [Compound 1431] | + (a “+” indicates that the compound has an MIC value of 16 micrograms/ml or less)
6 | COc1ccc(CN(C2CCNCC2)S(=O)(=O)c2ccc(-c3cc4cn(-c5ccc(C(=O)NCCCNC(=N)N)cc5)c(=O)nc4[nH]3)cc2)cc1[N+](=O)[O-] [Compound 1114] | + (a “+” indicates that the compound has an MIC value of 16 micrograms/ml or less)
7 | N=C(N)NCCCNCc1ccc(-n2cc3cc(-c4cc(CCO)cc(OCC(F)CN)c4)[nH]c3nc2=O)cc1 (centres unmarked) [Compound 2004a] | − (a “−” indicates that the compound has an MIC value greater than 16 micrograms/ml)
8 | COc1cc(-n2cc3cc(-c4cccc(OCC(C)(C)CN)c4)[nH]c3nc2=O)ccc1CNCCCNC(=N)N [Compound 1328] | + (a “+” indicates that the compound has an MIC value of 16 micrograms/ml or less)
9 | NCCCNCCCCCn1cc2cc(-c3ccc(S(=O)(=O)NC4CCNCC4)cc3)[nH]c2nc1=O [Compound 873] | + (a “+” indicates that the compound has an MIC value of 16 micrograms/ml or less)
10 | CC1CN(C(=O)c2ccc(-c3cn4cc(-c5ccc(CNCCCN)cc5)c(=O)nc4[nH]3)cc2)CCN1 (centres unmarked) [Compound 821] | + (a “+” indicates that the compound has an MIC value of 16 micrograms/ml or less)
11 | N=C(N)NCCCNCc1ccc(-n2cc3cc(-c4cc(CNc5ccc(F)cc5)cc(N5CCNCC5)c4)[nH]c3nc2=O)cc1 [Compound 1060] | + (a “+” indicates that the compound has an MIC value of 16 micrograms/ml or less)
12 | N=C(N)NCCCNCc1ccc(-n2cc3cc(-c4cc(CNCCc5ccc(F)cc5)cc(N5CCNCC5)c4)[nH]c3nc2=O)cc1 [Compound 1044] | + (a “+” indicates that the compound has an MIC value of 16 micrograms/ml or less)
13 | N=C(N)NCCCNCc1ccc(-n2cc3cc(-c4cc(CCN)cc(CCCCN)c4)[nH]c3nc2=O)cc1 [Compound 2062a] | + (a “+” indicates that the compound has an MIC value of 16 micrograms/ml or less)
14 | N=C(N)NCCCNCc1ccc(-n2cc3cc(-c4ccc(S(=O)(=O)N5CC(N)C5)cc4)[nH]c3nc2=O)cc1 [Compound 1459] | + (a “+” indicates that the compound has an MIC value of 16 micrograms/ml or less)
15 | CNCc1ccc(-n2cc3cc(-c4ccc(S(=O)(=O)N(CCCN5CCc6ccccc65)C5CCNCC5)cc4)[nH]c3nc2=O)cc1 [Compound 1063] | − (a “−” indicates that the compound has an MIC value greater than 16 micrograms/ml)
16 | N=C(N)NCCCN1CC=C(n2cc3cc(-c4ccc(S(=O)(=O)N(Cc5ccc6nonc6c5)C5CCNCC5)cc4)[nH]c3nc2=O)CC1 [Compound 1004] | + (a “+” indicates that the compound has an MIC value of 16 micrograms/ml or less)
17 | NCc1ccc(-n2cc3cc(-c4ccc(S(=O)(=O)N(CCCn5ccc(C(F)(F)F)n5)C5CCNCC5)cc4)[nH]c3nc2=O)cc1 [Compound 1002] | − (a “−” indicates that the compound has an MIC value greater than 16 micrograms/ml)
18 | N=C(N)NCCCNCc1ccc(-n2cc3cc(-c4ccc(S(=O)(=O)CCCNC5CCNCC5)cc4)[nH]c3nc2=O)cc1 [Compound 1285] | + (a “+” indicates that the compound has an MIC value of 16 micrograms/ml or less)
19 | N=C(N)NCCCNCCCCCn1cc2cc(-c3ccc(S(=O)(=O)NC4CCNCC4)cc3)[nH]c2nc1=O [Compound 924] | + (a “+” indicates that the compound has an MIC value of 16 micrograms/ml or less)
20 | N=C(N)NCCCNCc1ccc(-n2cc3cc(-c4cc(CNCC(F)(F)F)cc(N5CCNCC5)c4)[nH]c3nc2=O)cc1 [Compound 1040] | + (a “+” indicates that the compound has an MIC value of 16 micrograms/ml or less)
21 | NCCCNCc1ccc(-n2cc3cc(-c4ccc(S(=O)(=O)N(CC5COCCO5)C5CCCNC5)cc4)[nH]c3nc2=O)cc1 (centres unmarked) [Compound 846] | + (a “+” indicates that the compound has an MIC value of 16 micrograms/ml or less)
22 | N=C(N)NCCCNCc1ccc(-n2cc3cc(-c4cc(CCCCN)ccc4F)[nH]c3nc2=O)cc1 [Compound 2091a] | + (a “+” indicates that the compound has an MIC value of 16 micrograms/ml or less)
23 | CNCc1ccc(-n2cc3cc(-c4ccc(S(=O)(=O)N(Cc5ccc6nonc6c5)C5CCNCC5)cc4)[nH]c3nc2=O)cc1 [Compound 962] | − (a “−” indicates that the compound has an MIC value greater than 16 micrograms/ml)
24 | N=C(N)NCCCNC(=O)c1ccc(-n2cc3cc(-c4cc(CCCCN)cc(OC(F)(F)F)c4)[nH]c3nc2=O)cc1 [Compound 2048a] | + (a “+” indicates that the compound has an MIC value of 16 micrograms/ml or less)

Same assay, conditions: Escherichia coli, ATCC25922, Escherichia coli strain ATCC25922, microdilution; read-out: E. coli ATCC25922 MIC

Row | MIC [µg/mL] | Structure (SMILES)
25 | < 16 | N=C(N)NCCCNCc1ccc(-n2cc3cc(-c4ccc(S(=O)(=O)N(Cc5ccncc5)C5CCNCC5)cc4)[nH]c3nc2=O)cc1 [Compound 757]
26 | > 16 | NCc1ccc(-n2cc3cc(C4C[C@@H](N)[C@@H](CO)O4)[nH]c3nc2=O)cc1 (some centres unmarked) [Compound 1301]
27 | > 16 | CC1CCCCN1CCCN(C1CCNCC1)S(=O)(=O)c1ccc(-c2cc3cn(-c4ccc(CN)cc4)c(=O)nc3[nH]2)cc1 (centres unmarked) [Compound 1051]
28 | > 16 | COCCOCCOc1cccc(-c2cc3cn(-c4ccc(CN)cc4)c(=O)nc3[nH]2)c1 [Compound 1094]
29 | < 16 | N=C(N)NCCCNCc1ccc(C2N=c3cc(-c4cccc(O)c4)[nH]c3=NC2=O)cc1 (centres unmarked) [Compound 1334]
30 | < 16 | N=C(N)NCCCNCc1ccc(-n2cc3cc(-c4cccc(OCCCN)c4)[nH]c3nc2=O)cc1F [Compound 1263]
31 | > 16 | O=C(NC1CCNCC1)c1ccc(-c2cc3cn(-c4ccc(CNCCCF)c(F)c4)c(=O)nc3[nH]2)c(F)c1 [Compound 280]
32 | < 16 | N=C(N)NCCCNCc1ccc(-n2cc3cc(-c4cccc(S(=O)(=O)N(CCn5ccnc5)C5CCNCC5)c4)[nH]c3nc2=O)cc1 [Compound 1159]
33 | > 16 | NCCCNCc1ccc(-n2cc3cc(-c4ccncc4)[nH]c3nc2=O)cc1 [Compound 633]
34 | > 16 | N=C(N)NCCCNC(=O)c1ccc(-n2cc3cc(C4CCCNC4)[nH]c3nc2=O)cc1 (centres unmarked) [Compound 1257]
35 | < 16 | NCc1ccc(-n2cc3cc(-c4cc(F)c(C(=O)NC5CCNCC5)c(F)c4)[nH]c3nc2=O)cc1 [Compound 258]
36 | < 16 | N=C(N)NCCCNCc1ccc(-n2cc3cc(-c4ccc(C(=O)NC5CCNCC5)cc4)[nH]c3nc2=O)cc1 [Compound 234]
37 | < 16 | CN(C)C1CCN(c2cccc(-c3cc4cn(-c5ccc(CNCCCN)cc5)c(=O)nc4[nH]3)c2)CC1 [Compound 665]
38 | > 16 | NCc1ccc(-n2cc3cc(-c4ccc(S(=O)(=O)N(CCCN5CCCCC5)C5CCNCC5)cc4)[nH]c3nc2=O)cc1 [Compound 948]
39 | > 16 | NCc1ccc(-n2cc3cc(-c4cccc(S(=O)(=O)N(CCc5ccc(F)cc5)C5CCNCC5)c4)[nH]c3nc2=O)cc1 [Compound 1160]
40 | > 16 | NCCCNCc1ccc(-c2cn3cc(-c4ccc(S(=O)(=O)N5CCN(C(=O)OCc6ccccc6)CC5)cc4)[nH]c3nc2=O)cc1 [Compound 791]
41 | > 16 | NCc1ccc(-n2cc3cc(-c4cccc(S(=O)(=O)N(CCn5ccnc5)C5CCNCC5)c4)[nH]c3nc2=O)cc1 [Compound 1157]
42 | > 16 | NCCCNCc1ccc(-n2cc3cc(-c4ccccc4C(F)(F)F)[nH]c3nc2=O)cc1 [Compound 292]
43 | > 16 | NCCCCCN1CCN(c2cn3cc(-c4ccc(S(=O)(=O)N5CCNCC5)cc4)[nH]c3nc2=O)CC1 [Compound 900]
44 | > 16 | N=C(N)NCCCNCc1ccc(-c2cn3cc(-c4ccc(C(=O)N5CCN(c6ncccn6)CC5)cc4)[nH]c3nc2=O)cc1 [Compound 721]
45 | > 16 | CCOCc1cc2cn(-c3ccc(CNCCCN)cc3)c(=O)nc2[nH]1 [Compound 764]
46 | < 16 | N=C(N)NCCCNCc1ccc(-c2cn3cc[nH]c3nc2=O)cc1 [Compound 564, N-{3-[4-(7-Oxo-1,7-dihydro-imidazo[1,2-a]pyrimidin-6-yl)-benzylamino]-propyl}-guanidine]
47 | < 16 | NCCCNCc1ccc(-c2cn3cc(-c4ccc(C(=O)N5CCNCC5)cc4)[nH]c3nc2=O)cc1 [Compound 682, 6-{4-[(3-Amino-propylamino)-methyl]-phenyl}-2-[4-(piperazine-1-carbonyl)-phenyl]-1H-imidazo[1,2-a]pyrimidin-7-one]
48 | > 16 | NCc1ccc(-n2cc3cc(-c4cccc(S(=O)(=O)N(CCC(N)=O)C5CCNCC5)c4)[nH]c3nc2=O)cc1 [Compound 1249]

Row | Structure (SMILES) | MIC [µg/mL]
49 | N=C(N)NCCCNCc1ccc(-c2cn3cc(-c4ccc(C(=O)N5C6CCC5CC(=O)C6)cc4)[nH]c3nc2=O)cc1 [Compound 703] | > 16

Same assay, conditions: Escherichia coli, ATCC25922, read-out: E. coli ATCC25922 MIC

Row | Structure (SMILES) | MIC [µg/mL]
50 | N=C(N)NCCCNCc1ccc(-c2cn3c(nc2=O)[nH]c2ccccc23)cc1 [Compound 602, N-{3-[4-(2-Oxo-2,10-dihydro-benzo[4,5]imidazo[1,2-a]pyrimidin-3-yl)-benzylamino]-propyl}-guanidine hydrochloride salt] | < 16

From patent US9193731B2, “Antimicrobial compounds and methods of making and using the same” (Melinta Therapeutics, Inc., priority 2009, dated 2015)
